Assay results published in PubChem BioAssay (NCI).
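Abbreviation: GI50, concentration required for 50% inhibition of growth. TGI denotes the concentration required for complete inhibition of growth.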

Legend:
Assay in all cases: growth of human tumour cells (NCI), 384-well format
MCF7 breast = test system: MCF7 breast
U251 glioblastoma = test system: U251 glioblastoma
SF-539 CNS = test system: SF-539 CNS
RXF 393 renal = test system: RXF 393 renal
HCC-2998 colon = test system: HCC-2998 colon
A549 NSCLC = test system: A549 NSCLC
SNB-19 CNS = test system: SNB-19 CNS
MDA-MB-231 breast = test system: MDA-MB-231 breast
OVCAR-5 ovarian = test system: OVCAR-5 ovarian
LOX IMVI melanoma = test system: LOX IMVI melanoma
BT-549 breast = test system: BT-549 breast
SK-MEL-28 melanoma = test system: SK-MEL-28 melanoma
M14 melanoma = test system: M14 melanoma
COLO 205 colon = test system: COLO 205 colon
SK-OV-3 ovarian = test system: SK-OV-3 ovarian
MDA-MB-468 breast = test system: MDA-MB-468 breast
NCI-H23 lung = test system: NCI-H23 lung
NCI-H522 lung = test system: NCI-H522 lung
UACC-62 melanoma = test system: UACC-62 melanoma
NCI/ADR-RES ovarian = test system: NCI/ADR-RES ovarian
MOLT-4 leukemia = test system: MOLT-4 leukemia
UACC-257 melanoma = test system: UACC-257 melanoma
RPMI-8226 leukemia = test system: RPMI-8226 leukemia
OVCAR-3 ovarian = test system: OVCAR-3 ovarian
HOP-92 NSCLC = test system: HOP-92 NSCLC
DU-145 prostate = test system: DU-145 prostate
MALME-3M melanoma = test system: MALME-3M melanoma
EKVX NSCLC = test system: EKVX NSCLC
SN12C renal = test system: SN12C renal
MDA-MB-435 melanoma = test system: MDA-MB-435 melanoma
IGROV1 ovarian = test system: IGROV1 ovarian
KM12 colon = test system: KM12 colon
SF-268 CNS = test system: SF-268 CNS
NCI-H226 lung = test system: NCI-H226 lung
TK-10 renal = test system: TK-10 renal
HOP-62 NSCLC = test system: HOP-62 NSCLC
SK-MEL-5 melanoma = test system: SK-MEL-5 melanoma
CAKI-1 renal = test system: CAKI-1 renal
SNB-75 CNS = test system: SNB-75 CNS
NCI-H322M lung = test system: NCI-H322M lung
T-47D breast = test system: T-47D breast
PC-3 prostate = test system: PC-3 prostate
NCI-H460 NSCLC = test system: NCI-H460 NSCLC
ACHN renal = test system: ACHN renal
HCT-15 colon = test system: HCT-15 colon
OVCAR-8 ovarian = test system: OVCAR-8 ovarian
HL-60(TB) leukemia = test system: HL-60(TB) leukemia
HCT-116 colon = test system: HCT-116 colon
OVCAR-4 ovarian = test system: OVCAR-4 ovarian
HS 578T breast = test system: HS 578T breast
SR leukemia = test system: SR leukemia
A498 renal = test system: A498 renal
SF-295 CNS = test system: SF-295 CNS
HT29 colon = test system: HT29 colon

COC1CCN(C(=O)c2cc(Cc3n[nH]c(=O)c4ccccc34)ccc2F)CC1 showed a GI50 (MCF7 breast) of 68.1 µM, a TGI (MCF7 breast) greater than 100 µM and a GI50 (U251 glioblastoma) of 25.8 µM. The TGI (U251 glioblastoma) was greater than 100 µM, the GI50 (SF-539 CNS) was 27.3 µM and the TGI (SF-539 CNS) was greater than 100 µM. It also gave a GI50 (RXF 393 renal) greater than 100 µM, a TGI (RXF 393 renal) greater than 100 µM and a GI50 (HCC-2998 colon) of 63.7 µM. The TGI (HCC-2998 colon) was greater than 100 µM, the GI50 (A549 NSCLC) was greater than 100 µM and the TGI (A549 NSCLC) was greater than 100 µM. The GI50 (SNB-19 CNS) was 46.9 µM, the TGI (SNB-19 CNS) was greater than 100 µM and the GI50 (MDA-MB-231 breast) was 81 µM. The TGI (MDA-MB-231 breast) was greater than 100 µM, the GI50 (OVCAR-5 ovarian) was greater than 100 µM and the TGI (OVCAR-5 ovarian) was greater than 100 µM. It also gave a GI50 (LOX IMVI melanoma) of 33.5 µM, a TGI (LOX IMVI melanoma) greater than 100 µM and a GI50 (BT-549 breast) of 84.6 µM. It also gave a TGI (BT-549 breast) greater than 100 µM, a GI50 (SK-MEL-28 melanoma) greater than 100 µM and a TGI (SK-MEL-28 melanoma) greater than 100 µM. For the same molecule, the GI50 (M14 melanoma) was 74.7 µM, the TGI (M14 melanoma) was greater than 100 µM and the GI50 (COLO 205 colon) was greater than 100 µM. The TGI (COLO 205 colon) was greater than 100 µM, the GI50 (SK-OV-3 ovarian) was 32.3 µM and the TGI (SK-OV-3 ovarian) was greater than 100 µM. For the same molecule, the GI50 (MDA-MB-468 breast) was 9.62 µM, the TGI (MDA-MB-468 breast) was 33.3 µM and the GI50 (NCI-H23 lung) was 59.7 µM. The TGI (NCI-H23 lung) was greater than 100 µM, the GI50 (NCI-H522 lung) was greater than 100 µM and the TGI (NCI-H522 lung) was greater than 100 µM. The GI50 (UACC-62 melanoma) was greater than 100 µM, the TGI (UACC-62 melanoma) was greater than 100 µM and the GI50 (NCI/ADR-RES ovarian) was 34.9 µM. It also gave a TGI (NCI/ADR-RES ovarian) greater than 100 µM, a GI50 (MOLT-4 leukemia) of 4.06 µM and a TGI (MOLT-4 leukemia) of 14.2 µM. The GI50 (UACC-257 melanoma) was greater than 100 µM, the TGI (UACC-257 melanoma) was greater than 100 µM and the GI50 (RPMI-8226 leukemia) was 46.6 µM. For the same molecule, the TGI (RPMI-8226 leukemia) was greater than 100 µM, the GI50 (OVCAR-3 ovarian) was 7.79 µM and the TGI (OVCAR-3 ovarian) was greater than 100 µM. It also gave a GI50 (HOP-92 NSCLC) greater than 100 µM, a TGI (HOP-92 NSCLC) greater than 100 µM and a GI50 (DU-145 prostate) of 68.2 µM. For the same molecule, the TGI (DU-145 prostate) was greater than 100 µM, the GI50 (MALME-3M melanoma) was greater than 100 µM and the TGI (MALME-3M melanoma) was greater than 100 µM. It also gave a GI50 (EKVX NSCLC) greater than 100 µM, a TGI (EKVX NSCLC) greater than 100 µM and a GI50 (SN12C renal) of 46.1 µM. For the same molecule, the TGI (SN12C renal) was greater than 100 µM, the GI50 (MDA-MB-435 melanoma) was greater than 100 µM and the TGI (MDA-MB-435 melanoma) was greater than 100 µM. It also gave a GI50 (IGROV1 ovarian) greater than 100 µM, a TGI (IGROV1 ovarian) greater than 100 µM and a GI50 (KM12 colon) greater than 100 µM. It also gave a TGI (KM12 colon) greater than 100 µM, a GI50 (SF-268 CNS) of 44.5 µM and a TGI (SF-268 CNS) greater than 100 µM. It also gave a GI50 (NCI-H226 lung) greater than 100 µM, a TGI (NCI-H226 lung) greater than 100 µM and a GI50 (TK-10 renal) greater than 100 µM. It also gave a TGI (TK-10 renal) greater than 100 µM, a GI50 (HOP-62 NSCLC) of 10.4 µM and a TGI (HOP-62 NSCLC) of 49.8 µM. For the same molecule, the GI50 (SK-MEL-5 melanoma) was 74.2 µM, the TGI (SK-MEL-5 melanoma) was greater than 100 µM and the GI50 (CAKI-1 renal) was greater than 100 µM. The TGI (CAKI-1 renal) was greater than 100 µM, the GI50 (SNB-75 CNS) was 94.7 µM and the TGI (SNB-75 CNS) was greater than 100 µM. For the same molecule, the GI50 (NCI-H322M lung) was greater than 100 µM, the TGI (NCI-H322M lung) was greater than 100 µM and the GI50 (T-47D breast) was greater than 100 µM. The TGI (T-47D breast) was greater than 100 µM, the GI50 (PC-3 prostate) was greater than 100 µM and the TGI (PC-3 prostate) was greater than 100 µM. For the same molecule, the GI50 (NCI-H460 NSCLC) was 5.93 µM, the TGI (NCI-H460 NSCLC) was 56.1 µM and the GI50 (ACHN renal) was greater than 100 µM. For the same molecule, the TGI (ACHN renal) was greater than 100 µM, the GI50 (HCT-15 colon) was greater than 100 µM and the TGI (HCT-15 colon) was greater than 100 µM. For the same molecule, the GI50 (OVCAR-8 ovarian) was 22.6 µM, the TGI (OVCAR-8 ovarian) was greater than 100 µM and the GI50 (HL-60(TB) leukemia) was 10.4 µM. For the same molecule, the TGI (HL-60(TB) leukemia) was 29.7 µM, the GI50 (HCT-116 colon) was 28.7 µM and the TGI (HCT-116 colon) was greater than 100 µM. For the same molecule, the GI50 (OVCAR-4 ovarian) was greater than 100 µM, the TGI (OVCAR-4 ovarian) was greater than 100 µM and the GI50 (HS 578T breast) was greater than 100 µM. It also gave a TGI (HS 578T breast) greater than 100 µM, a GI50 (SR leukemia) of 0.364 µM and a TGI (SR leukemia) of 2.45 µM. The GI50 (A498 renal) was greater than 100 µM, the TGI (A498 renal) was greater than 100 µM and the GI50 (SF-295 CNS) was 11.4 µM. It also gave a TGI (SF-295 CNS) greater than 100 µM, a GI50 (HT29 colon) greater than 100 µM and a TGI (HT29 colon) greater than 100 µM.
